In paper PMC6277767, “Broad and Region-Specific Impacts of the Synthetic Cannabinoid CP 55,940 in Adolescent and Adult Female Mouse Brains” (Frontiers in Molecular Neuroscience, 2018):

Test system: CD1 female mouse brain lipidome
Test: Brain-region lipid levels (HPLC/MS/MS lipidomics) 2 h after single i.p. 3 mg/kg CP 55,940 vs vehicle
Format: in vivo
Set-up: N-arachidonoyl phenylalanine level, Mean / N-stearoyl tryptophan level, Mean / N-stearoyl proline level, Mean / N-stearoyl leucine level, Mean / N-stearoyl phenylalanine level, Mean / N-stearoyl serine level, Mean / N-stearoyl methionine level, Mean: unit: moles per gram
Details: cortex, PND 50 female mice, 3mg/kg CP 55,940
Description: The Bloomington Institutional Animal Care and Use Committee of Indiana University reviewed and approved the animal procedures. Female mice from the CD1 strain were utilized to match our study examining THC’s effects on the brain lipidome ([Leishman et al., 2018]). Mice were given a single i.p. injection of either 3 mg/kg CP or 1:1:18 cremophor:ethanol:saline vehicle (please refer to the section “3 mg/kg CP Is Relevant for Synthetic Cannabinoid Abuse and Has Stronger Effects on the Female Mouse Brain Lipidome During Adolescence” for a justification of dose and use of female mice). Three different age groups were given injections: PND 35 and PND 50 adolescents, and adult mice (PND 113). At least eight mice in each age group received CP and at least eight received vehicle. Matching the THC study time course ([Leishman et al., 2018]), mice were sacrificed via rapid decapitation 2 h after injection. Brains were immediately removed and flash-frozen in liquid nitrogen, and then stored at -80°C until dissections were performed. Brains were dissected on an ice-cold dissection plate into the following regions: STR, HIPP, CER, THAL, CTX, HYP, MID, and STEM. These abbreviations for these brain areas will be used exclusively when discussing the results generated by these specific dissections. Each dissected area was immediately placed in liquid nitrogen and then stored at -80°C until used for lipid extraction.
Tissue extracts were performed as previously described ([Bradshaw et al., 2006]; [Stuart et al., 2013]; [Raboune et al., 2014]; [Leishman et al., 2016a],[b], [2017], [2018]). First, samples were shock frozen in liquid nitrogen, weighed, and transferred to a centrifuge tube. The mass of the largest sample was multiplied by 50 to determine how many milliliters of HPLC-grade methanol (Fisher, Fair Lawn, NJ, United States) to add. Then, samples were spiked with 500 pmol deuterium-labeled NAGly (d8NAGly; Cayman Chemical, Ann Arbor, MI, United States). Samples were placed on ice in darkness for 2 h then individually homogenized and centrifuged at 19,000 × g for 20 min at 20°C. Supernatants were diluted with HPLC water (purified in house) to make a solution of 75% water, 25% supernatant. Lipids were partially purified on C18 solid phase extraction columns (Agilent, Palo Alto, CA, United States). A series of four elutions with 1.5 mL of 60%, 75%, 85%, and 100% methanol were collected ([Stuart et al., 2013]; [Leishman et al., 2016a],[b], [2018]).
As previously described ([Bradshaw et al., 2006]; [Tan et al., 2006]; [Smoum et al., 2010]; [Stuart et al., 2013]; [Tortoriello et al., 2013]; [Raboune et al., 2014]; [Leishman et al., 2016a],[b], [2017], [2018]), samples were analyzed using an Applied Biosystems API 3000 triple quadrupole mass spectrometer with electrospray ionization (Foster City, CA, United States). Using an Agilent XDB-C18 reversed phase analytical column and optimized mobile phase gradients, 20 μL from each elution were chromatographed. Two Shimadzu 10ADvp pumps (Columbia, MD, United States) provided the pressure for gradient elution. Mobile phase A: 20% methanol, 80% water (v/v) and 1 mM ammonium acetate (Sigma, St. Louis, MO, United States). Mobile phase B: 100% methanol, 1 mM ammonium acetate. Every method run began with 0% mobile phase B, reached 100% mobile phase B flowing at 0.2 mL/min, and gradually returned to 0% mobile phase B.
This screening library will be referred to as the lipidome when discussing data from this study. HPLC/MS/MS data were analyzed using Analyst software (Applied Biosystems) ([Bradshaw et al., 2006]; [Tan et al., 2006]; [Stuart et al., 2013]; [Tortoriello et al., 2013]; [Raboune et al., 2014]; [Leishman et al., 2016a],[b], [2017], [2018]). Chromatograms (Supplementary Figure 3) were generated by determining the retention time of analytes from the analytical column with a [M-1] or [M+1] parent peak and a fragmentation peak corresponding to the programmed values. […]

With `CCCCCCC(C)(C)c1ccc([C@@H]2C[C@H](O)CC[C@H]2CCCO)c(O)c1` [CP 55,940] the “N-arachidonoyl GABA level, Mean” value was 1.93E-11, the “N-arachidonoyl alanine level, Mean” value was 9.08E-13 and the “N-arachidonoyl dopamine level, Mean” value was “BDL”. For the same compound, the “N-arachidonoyl ethanolamine level, Mean” value was 1.23E-11, the “N-arachidonoyl glycine level, Mean” value was 3.26E-12 and the “N-arachidonoyl phenylalanine level, Mean” value was 4.3E-13. For the same compound, the “N-arachidonoyl proline level, Mean” value was “BDL”, the “N-arachidonoyl serine level, Mean” value was 1.27E-11 and the “N-arachidonoyl taurine level, Mean” value was 5.99E-11. For the same compound, the “N-arachidonoyl tryptophan level, Mean” value was “BDL”, the “N-arachidonoyl tyrosine level, Mean” value was 1.87E-13 and the “N-docosahexaenoyl GABA level, Mean” value was 9.29E-12. For the same compound, the “N-docosahexaenoyl ethanolamine level, Mean” value was 1.26E-11, the “N-docosahexaenoyl glycine level, Mean” value was 3.17E-13 and the “N-docosahexaenoyl leucine level, Mean” value was 3.29E-13. The “N-docosahexaenoyl methionine level, Mean” value was “BDL”, the “N-docosahexaenoyl phenylalanine level, Mean” value was 4.81E-13 and the “N-docosahexaenoyl proline level, Mean” value was “BDL”. For the same compound, the “N-docosahexaenoyl serine level, Mean” value was 1.83E-11, the “N-docosahexaenoyl tryptophan level, Mean” value was “BDL” and the “N-docosahexaenoyl tyrosine level, Mean” value was 3.22E-13. The “N-docosahexaenoyl valine level, Mean” value was “PISSR”, the “N-linoleoyl GABA level, Mean” value was 6.54E-12 and the “N-linoleoyl ethanolamine level, Mean” value was 1.61E-11. For the same compound, the “N-linoleoyl glycine level, Mean” value was 1.08E-13, the “N-linoleoyl leucine level, Mean” value was 7.72E-14 and the “N-linoleoyl methionine level, Mean” value was “BDL”. The “N-linoleoyl phenylalanine level, Mean” value was 1E-13, the “N-linoleoyl proline level, Mean” value was “BDL” and the “N-linoleoyl serine level, Mean” value was 6.54E-11. For the same compound, the “N-linoleoyl tryptophan level, Mean” value was “BDL”, the “N-linoleoyl tyrosine level, Mean” value was “BDL” and the “N-linoleoyl valine level, Mean” value was “PISSR”. For the same compound, the “N-nervonoyl valine level, Mean” value was “BDL”, the “N-oleoyl GABA level, Mean” value was 1.38E-11 and the “N-oleoyl alanine level, Mean” value was 1.52E-12. For the same compound, the “N-oleoyl dopamine level, Mean” value was “BDL”, the “N-oleoyl ethanolamine level, Mean” value was 3.66E-11 and the “N-oleoyl glycine level, Mean” value was 1.38E-12. For the same compound, the “N-oleoyl leucine level, Mean” value was 7.87E-13, the “N-oleoyl methionine level, Mean” value was 2.34E-13 and the “N-oleoyl phenylalanine level, Mean” value was 1.02E-12. The “N-oleoyl proline level, Mean” value was “BDL”, the “N-oleoyl serine level, Mean” value was 1.22E-10 and the “N-oleoyl tryptophan level, Mean” value was “BDL”. For the same compound, the “N-oleoyl tyrosine level, Mean” value was 3.4E-13, the “N-oleoyl valine level, Mean” value was 6.43E-14 and the “N-palmitoyl GABA level, Mean” value was 1.74E-11. For the same compound, the “N-palmitoyl alanine level, Mean” value was 1.42E-12, the “N-palmitoyl ethanolamine level, Mean” value was 1.43E-11 and the “N-palmitoyl glycine level, Mean” value was 6.08E-12.
